# Test: method code SF-AS, from DOI: 10.1016/0223-5234(89)90112-8
# Conditions: for logD: pH 7.4
SMILES,logD,logP
CC1CN(C)CC(O)(c2ccccc2)O1 (stereo not drawn),1.48,
CN1CCOC(O)C1c1ccccc1 (stereo not drawn),0.97,
CN1CCOC(OCc2ccccc2)(c2ccccc2)C1 (stereo not drawn),2.05,
CC1N(C)CCOC1(O)c1ccccc1 (stereo not drawn),1.31,
CN1CCOC(O)(c2cccc(C(F)(F)F)c2)C1 (stereo not drawn),,1.39
C#CCOC1(c2ccccc2)CN(C)CCO1 (stereo not drawn),1.76,
CN1CCOC(O)(c2ccccc2)C1 (stereo not drawn),1.3,
CN1CCOC(O)(c2ccc(Br)cc2)C1 (stereo not drawn),,1.57

# Further lines, results first:
logD,logP,SMILES
1.95,,CCCOC1(c2ccccc2)CN(C)CCO1 (stereo not drawn)
1.92,,C=CCOC1(c2ccccc2)CN(C)CCO1 (stereo not drawn)
,2.32,CCCCCCCCOC1(c2ccccc2)CN(C)CCO1 (stereo not drawn)
,1.87,CC1C(c2ccccc2)OC(O)(c2ccccc2)CN1C (stereo not drawn)
2.05,,CCCCOC1(c2ccccc2)CN(C)CCO1 (stereo not drawn)
1.96,,CCCOC1(c2ccccc2)CN(C)CC(C)O1 (stereo not drawn)
1.98,,CC(C)COC1(c2ccccc2)CN(C)CCO1 (stereo not drawn)
,2.11,CN1CCOC(OCCc2ccccc2)(c2ccccc2)C1 (stereo not drawn)
,2.19,CCCOC1(c2ccc(Br)cc2)CN(C)CCO1 (stereo not drawn)
1.74,,CCOC1(c2ccccc2)OCCN(C)C1C (stereo not drawn)

# Source: the SangsterLogP compilation
